Experimental data reported in US11517581B2, “Zika virus protease inhibitors and methods of use thereof” (priority 2017, dated 2022).
In brackets after ≈: the same amount, converted by molar mass.

Legend:
[1] = tested on: ZIKV; details: recently reported; cited from earlier work
[2] = molecular target: ZIKV NS2B-NS3 protease (Zika virus, UniProt A0A024B7W1, DEL1468-1502); format: biochemical; details: 10 μM substrate; for Effect of increasing drug concentrations on protease activity: 5 nM protease
[3] = Cell viability (MTT) assay in Vero cells; format: cell-based; details: African green monkey
Description: (§1) Briefly, Vero or Huh-7 cells (4×10^4 cells/well) were incubated with different concentrations of individual drug for 24 h, followed by the addition of 10 μl/well of 5 mg/ml MTT substrate. The monolayers were incubated as above for 4 h (away from light). Finally, 100 μl of 10% sodium dodecyl sulfate (SDS) with 0.01M HCl was added and further incubated at 37° C. with 5% CO2 overnight. […] Briefly, the drug compounds were diluted with serum-free MEM and added to confluent Vero cells in 96-well culture plates (4×10^4 cells/well) in triplicate for 2 h at 37° C. After incubation, the drug-containing media were removed, and ZIKV (multiplicity of infection, MOI=0.0002) was added together with fresh drug-compound media to each well. Following 1 h of adsorption at 37° C., the virus-compound mixture was removed and the cells were washed twice with MEM to remove unbound virus. Subsequently, media with antiviral compounds were added to the cells for further incubation for 6 days at 37° C. in a 5% CO2 humidified environment. CPE was examined by inverted light microscopy (Chan et al., 2016b). Thereafter, MTT substrate and SDS-HCl were added sequentially as mentioned above. The half maximal inhibitory concentration (IC50) and CC50 were calculated using Sigma plot (SPSS) in an Excel add-in ED50V10.

[4] = Cell viability (MTT) assay in Huh-7 cells; format: cell-based; details: human
Description: as §1

[5] = tested on: ZIKV (Puerto Rico strain PRVABC59); assay: Viral load reduction assay (qRT-PCR) in Vero cells; format: cell-based, Zika virus; details: culture supernatants, Vero and Huh-7; data not shown
[6] = tested on: ZIKV; details: literature; cited from earlier work
[7] = oral and parenteral; cited from earlier work
[8] = tested on: ZIKV NS2B-NS3 protease (recombinant fusion, ZIKV-NS2B residues 49-95 and ZIKV-NS3 residues 1-170); assay: Fluorescence-based protease inhibition assay; format: biochemical, Zika virus; details: 10 μM substrate, 5 nM protease
Excerpt: The recombinant ZIKV NS2B-NS3 protease was produced as previously described with some modifications (Lei et al., 2016). Briefly, coding regions of the ZIKV-NS2B (residues 49-95) and ZIKV-NS3 (residues 1-170) genes were fused and cloned into the pET-28b(+) expression vector (Novagen, Merck & Co., New Jersey, USA). The plasmid was transformed into Escherichia coli strain BL21 (DE3) and overexpressed in 2×YT medium. When the OD600 of the culture reached 0.8, overexpression of the ZIKV NS2B-NS3 protease gene was induced for overnight by addition of 0.5 mM IPTG at 20° C. […] The purified protein was detected by Western blot using anti-His-tag antibodies. Concentration of protein was determined by Bradford protein assay kit (Bio-Rad Laboratories, California, USA) using bovine serum albumin as standard.
The recombinant ZIKV NS2B-NS3 protease was produced as previously described with some modifications (Lei et al., 2016). To detect ZIKV NS2B-NS3 protease activity, a fluorescence-based enzymatic assay was conducted in 96-well black micro-plates (Greiner Bio-One, Kremsmünster, Germany). […] The fluorescence signal from the released AMC was measured at 460 nm with excitation at 360 nm, using a VICTOR™ X3 multilabel plate reader (Perkin Elmer, Massachusetts, USA). […] After 10 min, the fluorescence intensity was measured. […]

Chain of ZIKV NS2B-NS3 protease (A0A024B7W1 1502-1672, added parts left off, stated change not applied): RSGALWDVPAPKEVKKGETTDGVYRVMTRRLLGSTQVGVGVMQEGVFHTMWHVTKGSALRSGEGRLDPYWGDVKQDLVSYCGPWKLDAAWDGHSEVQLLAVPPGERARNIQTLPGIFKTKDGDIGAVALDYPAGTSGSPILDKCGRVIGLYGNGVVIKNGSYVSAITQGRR

CC[C@H]1OC(=O)[C@H](C)[C@@H](O[C@H]2C[C@@](C)(OC)[C@@H](O)[C@H](C)O2)[C@H](C)[C@@H](O[C@@H]2O[C@H](C)C[C@H](N(C)C)[C@H]2O)[C@](C)(O)C[C@@H](C)CN(C)[C@H](C)[C@@H](O)[C@]1(C)O [Azithromycin]
In vitro anti-ZIKV effects [1]: in vitro anti-ZIKV effects

CCN(CC)CCCC(C)Nc1ccnc2cc(Cl)ccc12 (centres unmarked) [Chloroquine]
In vitro anti-ZIKV effects [1]: in vitro anti-ZIKV effects

CCCCCCCCCC(=O)N[C@@H](Cc1c[nH]c2ccccc12)C(=O)N[C@H](CC(N)=O)C(=O)N[C@@H](CC(=O)O)C(=O)N[C@@H]1C(=O)NCC(=O)N[C@@H](CCCN)C(=O)N[C@@H](CC(=O)O)C(=O)N[C@H](C)C(=O)N[C@@H](CC(=O)O)C(=O)NCC(=O)N[C@H](CO)C(=O)N[C@@H]([C@H](C)CC(=O)O)C(=O)N[C@@H](CC(=O)c2ccccc2N)C(=O)O[C@@H]1C [Daptomycin]
In vitro anti-ZIKV effects [1]: in vitro anti-ZIKV effects

N=C(N)NCCC[C@H](NC(=O)[C@@H]1CCCN1C(=O)[C@@H]1CSSCCC(=O)N[C@@H](Cc2ccc(O)cc2)C(=O)N[C@@H](Cc2ccccc2)C(=O)N[C@@H](CCC(N)=O)C(=O)N[C@@H](CC(N)=O)C(=O)N1)C(=O)NCC(N)=O [Desmopressin acetate]
Effect of increasing drug concentrations on protease activity [2]: dose-dependent reduction in protease activity

CC[C@H](C)[C@H]1O[C@]2(CC[C@@H]1C)C[C@@H]1C[C@@H](C/C=C(\C)[C@@H](O[C@H]3C[C@H](OC)[C@@H](O[C@H]4C[C@H](OC)[C@@H](O)[C@H](C)O4)[C@H](C)O3)[C@@H](C)/C=C/C=C3\CO[C@@H]4[C@H](O)C(C)=C[C@@H](C(=O)O1)[C@]34O)O2 [Ivermectin]
In vitro anti-ZIKV effects [1]: in vitro anti-ZIKV effects

OC(c1cc(C(F)(F)F)nc2c(C(F)(F)F)cccc12)C1CCCCN1 (centres unmarked) [Mefloquine]
In vitro anti-ZIKV effects [1]: in vitro anti-ZIKV effects

O=C(Nc1ccc([N+](=O)[O-])cc1Cl)c1cc(Cl)ccc1O [Niclosamide]
In vitro anti-ZIKV effects [1]: in vitro anti-ZIKV effects

CO[C@H]1/C=C/O[C@@]2(C)Oc3c(C)c(O)c4c(O)c(c(/C=N/N5CCN(C)CC5)c(O)c4c3C2=O)NC(=O)/C(C)=C\C=C\[C@H](C)[C@H](O)[C@@H](C)[C@@H](O)[C@@H](C)[C@H](OC(C)=O)[C@@H]1C [Rifampicin]
Effect of increasing drug concentrations on protease activity [2]: dose-dependent reduction in protease activity
CC50 at 24 h [3]: 400 µg/mL (≈ 486 µM)
CC50 at 24 h [4]: 400 µg/mL (≈ 486 µM)
Dose-dependent reduction in virus titer observed [5]: not

CC(C)OC(=O)[C@H](C)N[P@](=O)(OC[C@H]1O[C@@H](n2ccc(=O)[nH]c2=O)[C@](C)(F)[C@@H]1O)Oc1ccccc1 [Sofosbuvir]
In vitro anti-ZIKV effects [1]: in vitro anti-ZIKV effects
Efficacy in animal models [6]: effective in animal models

O=C(Nc1ccc([N+](=O)[O-])cc1Cl)c1cc(Cl)ccc1O [niclosamide]
Solubility [7]: insoluble

Aprotinin [listing 1 of 2 here]
IC50 (vs protease activity) ([2]; 5 nM ZIKV NS2B-NS3 protease, positive control): 13.6 ± 1.1 KIU/ml

Aprotinin [listing 2 of 2 here]
Reduction in protease activity with increasing concentrations [8]: blocked the protease cleavage activity

Octreotide acetate
Effect of increasing drug concentrations on protease activity [2]: dose-dependent reduction in protease activity
